≈ marks a conversion by molar mass, not a printed value. Calls of active or inactive are those of the source. The calls are words filed in the database; no cut-off is given here.
How the values were obtained:
[1] = system: Staphylococcus aureus; assay: Antimicrobial activity against methicillin-sensitive Staphylococcus aureus MB2865 after 20 hrs by twofold serial dilution method in presence of 50% human serum; assay type: functional
[2] = system: Staphylococcus aureus; assay: Inhibition of DNA synthesis in Staphylococcus aureus assessed as [3H]thymidine incorporation by scintillation counting; assay type: functional, organism-based
[3] = system: Bacillus subtilis; assay: Antimicrobial activity against wild-type Bacillus subtilis MB964 after 20 hrs by twofold serial dilution method; assay type: functional
[4] = system: Staphylococcus aureus; assay: Ratio of IC50 for RNA synthesis to IC50 for DNA synthesis in Staphylococcus aureus; assay type: functional
[5] = system: Staphylococcus aureus; assay: Antibacterial activity against Staphylococcus aureus RN450 bearing RPSD antisense S1-782B plasmid at 1000 ug/mL after 18 hrs by rpsD sensitized two-plate differential sensitivity assay; assay type: functional; settings: RN450, 18 h, read-out: IZ
[6] = system: Staphylococcus aureus; assay: Inhibition of protein synthesis in Staphylococcus aureus assessed as [3H]leucine incorporation by scintillation counting; assay type: functional, organism-based
[7] = system: Staphylococcus aureus; assay: Antibacterial activity against Staphylococcus aureus RN450 bearing RPSD antisense S1-782B plasmid after 18 hrs by rpsD sensitized two-plate differential sensitivity assay; assay type: functional, organism-based
[8] = system: Staphylococcus aureus; assay: Antimicrobial activity against methicillin-sensitive Staphylococcus aureus ATCC 29213 after 20 hrs by twofold serial dilution method; assay type: functional; settings: ATCC 29213, 20 h
[9] = system: Staphylococcus aureus; assay: Antimicrobial activity against methicillin-sensitive Staphylococcus aureus ATCC 29213 at 16 ug/mL after 20 hrs by twofold serial dilution method; assay type: functional
[10] = system: Staphylococcus aureus; assay: Antibacterial activity against Staphylococcus aureus RN450 bearing RPSD antisense S1-782B plasmid assessed as faint zone of clearance at 31.25 ug/mL after 18 hrs by rpsD sensitized two-plate differential sensitivity assay; assay type: functional; settings: RN450, 18 h, read-out: IZ
[11] = system: Haemophilus influenzae; assay: Antimicrobial activity against drug-sensitive Haemophilus influenzae MB4572 after 20 hrs by twofold serial dilution method; assay type: functional
[12] = system: Enterococcus faecalis; assay: Antimicrobial activity against vancomycin-sensitive macrolide-resistant Enterococcus faecalis CL8516 after 20 hrs by twofold serial dilution method; assay type: functional
[13] = system: Escherichia coli; assay: Antimicrobial activity against Escherichia coli MB5746 envA1, tolC mutant after 20 hrs by twofold serial dilution method; assay type: functional
[14] = system: Staphylococcus aureus; assay: Inhibition of RNA synthesis in Staphylococcus aureus assessed as [3H]uracil incorporation by scintillation counting; assay type: functional, organism-based
[15] = system: Staphylococcus aureus; assay: Ratio of IC50 for RNA synthesis to IC50 for protein synthesis in Staphylococcus aureus; assay type: functional
[16] = system: HeLa; assay: Cytotoxicity against human HeLa cells; assay type: functional, cell-based
[17] = system: Staphylococcus aureus; assay: Antimicrobial activity against methicillin-sensitive Staphylococcus aureus MB2865 after 20 hrs by twofold serial dilution method; assay type: functional
[18] = system: Staphylococcus aureus; assay: Antibacterial activity against wild-type Staphylococcus aureus RN450 at 1000 ug/mL after 18 hrs by rpsD sensitized two-plate differential sensitivity assay; assay type: functional; settings: RN450, 18 h, read-out: IZ
[19] = system: Streptococcus pneumoniae; assay: Antimicrobial activity against drug-sensitive Streptococcus pneumoniae CL2883 in isosensitet medium at 2 ug/mL after 20 hrs by twofold serial dilution method; assay type: functional
[20] = system: Escherichia coli; assay: Antimicrobial activity against wild-type Escherichia coli MB2884 after 20 hrs by twofold serial dilution method; assay type: functional
[21] = system: Staphylococcus aureus; assay: Antibacterial activity against wild-type Staphylococcus aureus RN450 assessed as faint zone of clearance at 31.25 ug/mL after 18 hrs by rpsD sensitized two-plate differential sensitivity assay; assay type: functional, organism-based
[22] = system: Staphylococcus aureus; assay: Antibacterial activity against Staphylococcus aureus RN450 bearing RPSD antisense S1-782B plasmid assessed as minimum detection concentration after 18 hrs by rpsD sensitized two-plate differential sensitivity assay; assay type: functional
[23] = system: Staphylococcus aureus; assay: Antimicrobial activity against methicillin-sensitive Staphylococcus aureus MB2865 at 4 ug/mL after 20 hrs by twofold serial dilution method; assay type: functional
[24] = system: Candida albicans; assay: Antimicrobial activity against wild-type Candida albicans MY1055 after 20 hrs by twofold serial dilution method; assay type: functional; settings: MY1055, 20 h
[25] = system: Streptococcus pneumoniae; assay: Antimicrobial activity against drug-sensitive Streptococcus pneumoniae CL2883 in isosensitet medium after 20 hrs by twofold serial dilution method; assay type: functional
[26] = system: Streptococcus pneumoniae; assay: Antimicrobial activity against drug-sensitive Streptococcus pneumoniae CL2883 in CAMHB medium containing 2.5% horse blood after 20 hrs by twofold serial dilution method; assay type: functional

Cc1cc(O)c2c(c1)C(=O)C1=C(C2=O)[C@@H](O)[C@@H](O)[C@@H](O)C1 [PLEOSPORONE] was tested. Which MIC [1] did it give?
Its MIC is over 64 µg/mL.

What about the IC50 [2] of the same compound?
The IC50 was 8.4 µg/mL (≈ 28.9 µM).

And the MIC [3]?
The MIC was 8 µg/mL (≈ 27.6 µM).

And the “Ratio IC50” value [4]?
Its value is 6.

What about the zone of inhibition at 1000 µg/mL [5] of the same compound?
The zone of inhibition at 1000 µg/mL was 21.8 mm.

And the IC50 [6]?
The IC50 was 15.4 µg/mL (≈ 53.1 µM).

What about the Activity [7] of the same compound?
Its Activity is “Dose-dependent effect”.

And the MIC [8]?
The MIC was over 64 µg/mL.

And the MIC80 [8]?
The MIC80 was 4 µg/mL (≈ 13.8 µM).

And the Activity [9]?
Its Activity is 80%.

And the zone of inhibition at 31.25 µg/mL [10]?
The zone of inhibition at 31.25 µg/mL was 9 mm.

And the MIC [11]?
The MIC was 1 µg/mL (≈ 3.45 µM).

And the MIC [12]?
The MIC was 64 µg/mL (≈ 220 µM).

And the MIC [13]?
Its MIC is 16 µg/mL (≈ 55.1 µM).

What about the IC50 [14] of the same compound?
The IC50 was 1.3 µg/mL (≈ 4.48 µM).

What about the “Ratio IC50” value [15] of the same compound?
The value was 6.

What about the IC50 [16] of the same compound?
The IC50 was 0.23 µg/mL (≈ 0.792 µM).

And the MIC [17]?
Its MIC is 64 µg/mL (≈ 220 µM).

And the zone of inhibition at 1000 µg/mL [18]?
The zone of inhibition at 1000 µg/mL was 19.2 mm.

What about the Activity [19] of the same compound?
Its Activity is 80%.

And the MIC [20]?
The MIC was over 64 µg/mL.

And the Activity [21]?
Its Activity is “inactive”.

What about the Activity [22] of the same compound?
Its Activity is 31.25 µg/mL.

What about the Activity [23] of the same compound?
The Activity was 80%.

And the MIC [24]?
Its MIC is over 64 µg/mL.

What about the MIC [25] of the same compound?
Its MIC is 4 µg/mL (≈ 13.8 µM).

What about the MIC [26] of the same compound?
The MIC was 4 µg/mL (≈ 13.8 µM).

— ChEMBL document CHEMBL1154489, “Isolation, structure and antibacterial activity of pleosporone from a pleosporalean ascomycete discovered by using antisense strategy” (Bioorg Med Chem, 2009)
